Assays:
KAT6B = target: T1, KAT6B (Homo sapiens, UniProt Q8WYB5); experiment: KATs acetyltransferase enzyme activity assay (TR-FRET), KAT6B; type: biochemical; details: Biotin-H3 (1-21) and AcCOA, 90 minutes at room temperature
T1 construct: purchased Active Motif 81224
Method: (§1) I. KATs acetyltransferase enzyme activity assay
(§2) • 1. The inhibitory effect of compounds on the acetyltransferase activity of KATs was evaluated using the Time-Resolved Fluorescence Resonance Energy Transfer (TR-FRET) assay. The assay was conducted in 384-well plates using Tris-HCl buffer. • 2. Compounds were diluted in DMSO and transferred to 384-well plates. Enzyme solutions (KAT6: active motif (kit), 81223; KAT6B: active motif, 81224; KAT5: SignalChem, K314-380G; KAT7: ICE, S2210F-H21HF; KAT8: Active motif, 81225) were added and the mixture was incubated at room temperature for 15 minutes. • 3. Subsequently, 2.5 µL of a mixture containing KAT6A/KAT6B: Biotin-H3 (1-21, Genscript, C6829GL060) or KAT5/7/8: Bio-H4 (1-25, Genscript, C736BGL100) AcCOA (Sigma, A2056) was added, and the reaction proceeded at room temperature for 90 minutes. • 4. After the reaction, a detection mixture containing Europium-anti-acetyl-Histone H4 Lysine (H4Kac pan) Antibody (Perkin Elmer, TRF0412) and LANCE Ultra ULight™-Streptavidin in LANCE™ Detection buffer (10x) (Perkin Elmer, CR97-100) was added, followed by incubation at room temperature for 60 minutes. • 5. HTRF signals were measured using a BMG PHERAstar FSX (Ratio: 665nm/620nm). IC50 values were calculated by nonlinear regression using a four-parameter logistic equation in GraphPad Prism 8 software.

KAT6A = target: T2, KAT6A (Homo sapiens, UniProt Q92794); experiment: KATs acetyltransferase enzyme activity assay (TR-FRET), KAT6A; type: biochemical; details: Biotin-H3 (1-21) and AcCOA, 90 minutes at room temperature
T2 construct: purchased Active Motif 81223
T2 sequence (Q92794 488-778 limits assumed): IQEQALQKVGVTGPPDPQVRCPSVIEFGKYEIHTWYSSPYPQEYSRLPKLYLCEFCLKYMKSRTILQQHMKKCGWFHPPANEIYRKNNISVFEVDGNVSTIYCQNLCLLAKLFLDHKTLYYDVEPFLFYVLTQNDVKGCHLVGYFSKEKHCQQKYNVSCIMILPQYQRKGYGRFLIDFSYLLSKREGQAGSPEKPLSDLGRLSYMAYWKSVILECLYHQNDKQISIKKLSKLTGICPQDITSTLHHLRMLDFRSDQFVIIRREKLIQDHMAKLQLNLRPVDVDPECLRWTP
Method: as §1
as §2, with “Enzyme solutions (KAT6: active motif (kit), 81223; KAT6B: active motif, 81224; KAT5: SignalChem, K314-380G; KAT7: ICE, S2210F-H21HF; KAT8: Active motif, 81225) were added and the mixture was incubated at room temperature for 15 minutes. • 3.” left out, “HTRF signals were measured using a BMG PHERAstar FSX (Ratio: 665nm/620nm).” left out

[1] = system: ZR-75-1 H3K23 Acetylation; experiment: Histone H3 acetylation assay (H3K23 acetylation in ZR-75-1 cells); type: cell-based; details: Homo sapiens, 72 hours incubation, Odyssey CLx fluorescence, read-out: ZR-75-1 H3K23 Acetylation Inhibition IC50
Method: III. Histone H3 acetylation assay
• 1. ZR-75-1 cells were seeded at 5000 cells/40 µL per well in 384-well plates and cultured overnight in an incubator at 37°C & 5% CO2. • 2. 40 nL of serially diluted compounds were added to the 384-well plates, followed by further incubation for 72 hours. • 3. The supernatant was discarded, and 8 w/v% paraformaldehyde (final concentration was 4 w/v%) was added directly to the wells to fix the cells at room temperature. • 4. After washing twice with PBS, a permeabilization agent (40 µL of methanol) was added and incubated for 10 minutes to permeabilize the cell membranes. • 5. After washing twice with PBS, a blocking buffer was added and incubated at room temperature for 1 hour for blocking. • 6. The blocking buffer was discarded, and 20 µL of primary antibodies (recombinant Anti-Histone H3 (acetyl K23) antibody and Anti-Histone H4 antibody) diluted in blocking buffer (1:1000 by volume dilution) were added, followed by incubation at 4°C overnight. • 7. After washing three times with PBST (0.05 vol% Tween-20 in PBS), 20 µL of fluorescent secondary antibodies (IRDye 680RD Goat anti-MOUSE, Licor, 926-68070; IRDye 800CW Goat anti-Rabbit, Licor, 926-32211) diluted in blocking buffer (1:2000 by volume dilution) were added, followed by incubation at room temperature, protected from light, for 1 hour. Then, the plates were washed three times with PBST. • 8. Scanning was performed using an Odyssey CLx, and the fluorescence signal value for each well was quantified. IC50 values were calculated by nonlinear regression using a four-parameter logistic equation in GraphPad Prism 8 software.

ZR-75-1 cells = experiment: ZR-75-1 cell proliferation assay (CellTiter-Glo); type: cell-based; details: Homo sapiens, ZR-75-1, 240 h, total culture period of 10 days, read-out: ZR-75-1 Proliferation Inhibition IC50
Method: II. ZR-75-1 cell proliferation assay
• 1. ZR-75-1 cells were seeded in 96-well plates and cultured overnight in an incubator at 37°C & 5% CO2. • 2. Compounds were diluted using culture medium and added to the 96-well plates. The plates were placed back into the incubator for continued culture. Every 5 days, the cells were trypsinized, counted, and re-seeded. After the cells had fully adhered, compounds were added again for incubation, for a total culture period of 10 days. • 3. After the culture period, 60 µL of CellTiter-Glo reagent (Promega, G7573) was added to each well. The plates were protected from light and shaken for 2 minutes to lyse the cells, followed by further incubation at room temperature, protected from light, for 30 minutes. • 4. Luminescence signals were read using a BMG PHERAstar FSX. IC50 values were calculated by nonlinear regression using a four-parameter logistic equation in GraphPad Prism 8 software.

T1 sequence (Q8WYB5 whole entry): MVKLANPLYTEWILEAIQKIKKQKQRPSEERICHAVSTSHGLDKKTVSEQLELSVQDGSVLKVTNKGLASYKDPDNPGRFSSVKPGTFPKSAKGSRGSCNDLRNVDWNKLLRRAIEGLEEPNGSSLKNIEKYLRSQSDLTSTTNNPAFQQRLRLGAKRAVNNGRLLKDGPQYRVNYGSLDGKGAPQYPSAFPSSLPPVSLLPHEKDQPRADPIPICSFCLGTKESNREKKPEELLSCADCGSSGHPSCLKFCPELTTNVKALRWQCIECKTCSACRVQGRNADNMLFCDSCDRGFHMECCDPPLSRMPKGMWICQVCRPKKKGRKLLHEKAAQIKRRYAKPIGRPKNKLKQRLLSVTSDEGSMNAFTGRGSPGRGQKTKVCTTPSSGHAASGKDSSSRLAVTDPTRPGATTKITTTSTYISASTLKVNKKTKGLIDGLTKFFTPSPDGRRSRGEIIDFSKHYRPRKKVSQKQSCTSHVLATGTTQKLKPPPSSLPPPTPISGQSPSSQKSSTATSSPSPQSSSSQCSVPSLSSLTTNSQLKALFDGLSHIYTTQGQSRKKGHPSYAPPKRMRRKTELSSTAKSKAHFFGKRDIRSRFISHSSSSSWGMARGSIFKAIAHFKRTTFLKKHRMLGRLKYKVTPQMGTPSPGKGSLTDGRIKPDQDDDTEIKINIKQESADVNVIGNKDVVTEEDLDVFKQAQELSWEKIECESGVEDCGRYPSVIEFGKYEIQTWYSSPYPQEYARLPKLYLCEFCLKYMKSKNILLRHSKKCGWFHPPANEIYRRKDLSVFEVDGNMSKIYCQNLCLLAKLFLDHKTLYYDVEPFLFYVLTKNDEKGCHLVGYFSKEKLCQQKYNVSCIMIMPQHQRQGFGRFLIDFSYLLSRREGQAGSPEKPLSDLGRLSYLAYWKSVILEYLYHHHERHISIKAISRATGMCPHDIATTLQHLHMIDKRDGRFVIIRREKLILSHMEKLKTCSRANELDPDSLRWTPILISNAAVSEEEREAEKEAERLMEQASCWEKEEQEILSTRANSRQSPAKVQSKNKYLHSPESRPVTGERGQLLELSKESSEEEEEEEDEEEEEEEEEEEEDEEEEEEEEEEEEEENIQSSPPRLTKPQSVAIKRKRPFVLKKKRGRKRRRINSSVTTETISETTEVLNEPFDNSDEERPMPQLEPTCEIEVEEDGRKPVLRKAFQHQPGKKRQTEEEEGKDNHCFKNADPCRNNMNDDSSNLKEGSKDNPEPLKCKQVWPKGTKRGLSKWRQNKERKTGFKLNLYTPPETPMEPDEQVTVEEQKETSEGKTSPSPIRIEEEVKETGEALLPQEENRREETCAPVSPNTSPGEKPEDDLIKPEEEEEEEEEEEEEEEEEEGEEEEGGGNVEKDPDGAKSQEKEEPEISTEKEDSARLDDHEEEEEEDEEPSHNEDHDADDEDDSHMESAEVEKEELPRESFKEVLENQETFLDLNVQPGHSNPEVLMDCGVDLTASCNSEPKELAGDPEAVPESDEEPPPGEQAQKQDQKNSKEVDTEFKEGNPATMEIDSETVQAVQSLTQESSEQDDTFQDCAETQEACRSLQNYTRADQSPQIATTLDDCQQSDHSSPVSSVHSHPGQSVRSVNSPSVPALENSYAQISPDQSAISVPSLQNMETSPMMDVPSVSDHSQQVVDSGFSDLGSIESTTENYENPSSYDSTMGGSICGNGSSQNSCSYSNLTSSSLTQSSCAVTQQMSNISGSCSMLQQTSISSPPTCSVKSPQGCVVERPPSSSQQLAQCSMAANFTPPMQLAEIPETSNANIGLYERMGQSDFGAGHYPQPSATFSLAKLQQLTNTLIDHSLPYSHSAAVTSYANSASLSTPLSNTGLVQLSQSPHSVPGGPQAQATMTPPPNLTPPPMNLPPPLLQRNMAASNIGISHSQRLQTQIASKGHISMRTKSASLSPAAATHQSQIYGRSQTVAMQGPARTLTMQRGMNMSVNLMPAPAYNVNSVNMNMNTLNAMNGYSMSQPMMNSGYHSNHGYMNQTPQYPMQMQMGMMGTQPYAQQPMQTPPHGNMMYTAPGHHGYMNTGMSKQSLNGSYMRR

SMILES | IC50 (KAT6B) [nM] | IC50 (KAT6A) [nM] | IC50 [1] [nM] | IC50 (ZR-75-1 cells) [nM]
CCc1c(Cn2cccn2)cc2onc(NS(=O)(=O)c3c(OC)ccc4c3OCC43CC3)c2c1OC [Compound 28, N-(6-((1H-Pyrazol-1-yl)methyl)-5-ethyl-4-methoxybenzo[d]isoxazol-3-yl)-6-methoxy-2 H-spiro[benzofuran-3,1'-cyclopropane]-7-sulfonamide] | 12.3 | 2.2 | 37.7 | 16.6
COc1ccc2c(c1S(=O)(=O)Nc1noc3cc(Cn4cccn4)c(F)c(OC)c13)OCCCO2 [Compound 29, N-(6-((1H-Pyrazol-1-yl)methyl)-5-fluoro-4-methoxybenzo[d]isoxazol-3-yl)-7-methoxy-3,4-dihydro-2H-benzo[b][1,4]dioxepine-6-sulfonamide] | 23.3 | 3 | 4.6 | 0.6
COc1ccc2c(c1S(=O)(=O)Nc1noc3cc(Cn4cccn4)c(F)c(OC)c13)OCC1CC21 (stereo not shown) [Compound 30, N-(6-((1H-Pyrazol-1-yl)methyl)-5-fluoro-4-methoxybenzo[d]isoxazol-3-yl)-5-methoxy-1,1a,2,7b-tetrahydrocyclopropa[c]chromene-4-sulfonamide] | 1.8 | 0.8 | 0.8 | 0.15
COc1ccc2c(c1S(=O)(=O)Nc1noc3cc(Cn4cccn4)c(F)c(OC)c13)OCC21CC1 [Compound 31, N-(6-((1H-Pyrazol-1-yl)methyl)-5-fluoro-4-methoxybenzo[d]isoxazol-3-yl)-6-methoxy-2H-spiro[benzofuran-3,1'-cyclopropane]-7-sulfonamide] | 2.7 | 1.3 | 1.1 | 0.3
COc1ccc2c(c1S(=O)(=O)Nc1noc3cc(Cn4cccn4)c4c(c13)OCC4)OCCCO2 [Compound 35, N-(4-((1H-Pyrazol-1-yl)methyl)-2,3-dihydrobenzofuro[7,6-d]isoxazol-8-yl)-7-methoxy-3,4-dihydro-2H-benzo[b][1,4]dioxepine-6-sulfonamide] | 45.9 | 4.3 | 15 | 3.3
COc1ccc2c(c1S(=O)(=O)Nc1noc3cc(Cn4cccn4)c4c(c13)OCC4)OCC21CC1 [Compound 36, N-(4-((1H-Pyrazol-1-yl)methyl)-2,3-dihydrobenzofuro[7,6-d]isoxazol-8-yl)-6-methoxy-2H-spiro[benzofuran-3,1'-cyclopropane]-7-sulfonamide] | 8 | 1.7 | 3.7 | 0.4
COc1ccc2c(c1S(=O)(=O)Nc1noc3cc(Cn4cccn4)c4c(c13)OCC4)OCC1CC21 (stereo not shown) [Compound 37, N-(4-((1H-Pyrazol-1-yl)methyl)-2,3-dihydrobenzofuro[7,6-d]isoxazol-8-yl)-5-methoxy-1,1a,2,7b-tetrahydrocyclopropa[c]chromene-4-sulfonamide] | 4.1 | 1.6 | 1.2 | 0.4
COc1ccc2c(c1S(=O)(=O)Nc1noc3cc(Cn4cccn4)c(OC)c(C)c13)OCC21CC1 [Compound 39, N-(6-((1H-Pyrazol-1-yl)methyl)-5-methoxy-4-methylbenzo[d]isoxazol-3-yl)-6-methoxy-2H-spiro[benzofuran-3,1'-cyclopropane]-7-sulfonamide] | 37.6 | 2.2 | 23.7 | 2.6
COc1ccc2c(c1S(=O)(=O)Nc1noc3cc(Cn4cccn4)c(OC)c(C)c13)OCC1CC21 (stereo not shown) [Compound 40, N-(6-((1H-Pyrazol-1-yl)methyl)-5-methoxy-4-methylbenzo[d]isoxazol-3-yl)-5-methoxy-1,1a,2,7b-tetrahydrocyclopropa[c]chromene-4-sulfonamide] | 12.9 | 1.7 | 12.4 | 1.6
COc1ccc2c(c1S(=O)(=O)Nc1noc3cc(Cn4cccn4)cc(OC)c13)OCCCN2C [Compound 41, N-(6-((1H-Pyrazol-1-yl)methyl)-4-methoxybenzo[d]isoxazol-3-yl)-8-methoxy-5-methyl-2,3,4,5-tetrahydrobenzo[b][1,4]oxazepine-9-sulfonamide] | 97.5 | 8.9 | 20.2 | 4.8
